What was measured:
[1] = system: saphenous artery rings; test: Vasorelaxant effect in vitro (phenylephrine-contracted artery rings); set-up: species or system Rabbits; conditions: Oryctolagus cuniculus, concentration reducing phenylephrine-induced contraction by 50%
Procedure: Rabbits are anesthetized and sacrificed by intravenous injection of thiopental sodium (about 50 mg/kg) and exsanguinated. The saphenous artery is removed and divided into rings 3 mm wide. The rings are mounted singly on in each case a pair of triangular hooks open at the end and made of 0.3 mm-thick special wire (Remanium®). Each ring is placed under an initial tension in 5 ml organ baths with Krebs-Henseleit solution which is at 37° C., is gassed with carbogen and has the following composition: NaCl 119 mM; KCl 4.8 mM; CaCl2×2H2O 1 mM; MgSO4×7H2O 1.4 mM; KH2PO4 1.2 mM; NaHCO3 25 mM; glucose 10 mM; bovine serum albumin 0.001%. The force of contraction is detected with Statham UC2 cells, amplified and digitized via A/D converters (DAS-1802 HC, Keithley Instruments, Munich) and recorded in parallel on chart recorders. Contractions are induced by addition of phenylephrine.
After several (generally 4) control cycles, the substance to be investigated is added in each further run in increasing dosage, and the level of the contraction achieved under the influence of the test substance is compared with the level of the contraction reached in the last preceding run. The concentration necessary to reduce the contraction reached in the preceding control by 50% is calculated from this (IC50). The standard application volume is 5 μl. The proportion of DMSO in the bath solution corresponds to 0.1%.

[2] = molecular target: T1, soluble guanylate cyclase (sGC) (Rattus norvegicus, UniProt P20595); test: Activating action at the sGC enzyme in vitro (PPi detection, luciferase); type: biochemical; conditions: for EC50: read-out: EC50 (concentration at 50% of maximum efficacy), activating action at the sGC enzyme
T1 construct: made in house; host or cells: baculovirus/Sf9 insect cells
T1 sequence (P20595 1-619): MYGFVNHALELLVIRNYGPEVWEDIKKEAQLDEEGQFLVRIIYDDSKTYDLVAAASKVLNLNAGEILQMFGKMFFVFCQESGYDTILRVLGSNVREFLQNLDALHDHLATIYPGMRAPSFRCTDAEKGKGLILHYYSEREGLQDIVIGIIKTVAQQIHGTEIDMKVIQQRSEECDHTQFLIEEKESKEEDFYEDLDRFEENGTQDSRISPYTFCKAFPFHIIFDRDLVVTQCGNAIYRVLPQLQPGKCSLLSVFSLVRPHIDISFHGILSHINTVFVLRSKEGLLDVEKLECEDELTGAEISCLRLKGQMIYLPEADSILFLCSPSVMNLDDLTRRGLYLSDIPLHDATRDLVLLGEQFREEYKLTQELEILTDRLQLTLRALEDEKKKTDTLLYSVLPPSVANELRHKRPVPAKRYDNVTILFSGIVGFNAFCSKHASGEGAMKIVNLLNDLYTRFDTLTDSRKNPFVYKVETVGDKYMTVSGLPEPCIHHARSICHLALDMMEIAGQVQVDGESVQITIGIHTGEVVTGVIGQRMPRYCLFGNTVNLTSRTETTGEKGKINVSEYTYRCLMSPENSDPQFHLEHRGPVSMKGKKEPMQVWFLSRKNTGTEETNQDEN
T1 sequence (P19686 1-690 partner): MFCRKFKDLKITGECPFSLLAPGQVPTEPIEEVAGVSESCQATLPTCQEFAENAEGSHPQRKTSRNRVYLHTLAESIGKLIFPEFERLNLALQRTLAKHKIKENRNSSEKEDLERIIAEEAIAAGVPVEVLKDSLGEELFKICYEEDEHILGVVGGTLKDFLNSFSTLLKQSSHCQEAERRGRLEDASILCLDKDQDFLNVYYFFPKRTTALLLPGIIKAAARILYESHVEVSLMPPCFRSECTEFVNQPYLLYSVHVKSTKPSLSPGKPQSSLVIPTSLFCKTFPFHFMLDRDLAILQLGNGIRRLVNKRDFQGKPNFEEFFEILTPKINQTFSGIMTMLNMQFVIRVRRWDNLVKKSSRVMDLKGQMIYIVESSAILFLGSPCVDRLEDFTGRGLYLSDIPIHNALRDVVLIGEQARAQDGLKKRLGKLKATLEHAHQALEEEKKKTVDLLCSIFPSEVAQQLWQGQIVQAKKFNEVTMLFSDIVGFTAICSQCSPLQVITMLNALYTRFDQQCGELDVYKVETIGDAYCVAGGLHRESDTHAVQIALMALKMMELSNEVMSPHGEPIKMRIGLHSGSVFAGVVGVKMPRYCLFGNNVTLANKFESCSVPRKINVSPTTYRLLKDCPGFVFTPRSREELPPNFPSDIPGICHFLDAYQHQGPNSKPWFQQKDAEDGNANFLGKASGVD
Method in brief: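 Rat sGC (0–10 nM) preincubated 10 min at room temperature with compound in TEA buffer, pH 7.5; reaction started with GTP (1.25 mM solution). PPi formed read continuously by luciferase luminescence; stimulation expressed relative to unstimulated enzyme. Heme-free enzyme tested after 30 min with 25 μM ODQ.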

[3] = molecular target: T2, recombinant guanylate cyclase reporter cell line (Rattus norvegicus, UniProt P20595); test: sGC-activating activity in the CHO reporter cell in vitro; type: cell-based
T2 construct: expressed in transfected cells; host or cells: CHO reporter cell line
T2 sequence (P20595 1-619): T1 sequence (P20595 1-619)
T2 sequence (P19686 1-690 partner): T1 sequence (P19686 1-690 partner)
Procedure: The cellular action of the compounds according to the invention is determined at a recombinant guanylate cyclase reporter cell line, as described in F. Wunder et al., Anal. Biochem. 339, 104-112 (2005).

IC50 [1]	MEC (minimum effective concentration), activating action at the sGC enzyme [2]	EC50 [2]	MEC (minimum effective concentration), sGC-activating activity in the CHO reporter cell [3]	Compound
158 nM	0.9 nM	21 nM	1 nM	O=C(Nc1cc(F)cc(CC2(C(=O)O)CC2)c1)C(c1ccc(CN2N=C(c3ccccc3)OCC2=O)cc1)C1CCCC1 (single isomer, unassigned) [Example 237, 1-{3-[(Cyclopentyl{4-[(5-oxo-2-phenyl-5,6-dihydro-4H-1,3,4-oxadiazin-4-yl)methyl]phenyl}acetyl)amino]-5-fluorobenzyl}cyclopropanecarboxylic acid]
45 nM	0.2 nM	5.4 nM	3 nM	O=C(Nc1cccc(CC2(C(=O)O)CC2)c1)C(c1ccc(Cn2nc(-c3ccccc3)ccc2=O)cc1)C1CCCC1 (stereo not drawn) [Example 156, 1-{3-[(cyclopentyl{4-[(6-oxo-3-phenylpyridazin-1(6H)-yl)methyl]phenyl}acetyl)amino]benzyl}-cyclopropanecarboxylic acid]
37 nM	0.1 nM	1.5 nM	0.2 nM	CC(C(C(=O)Nc1cc(CC2(C(=O)O)CC2)ccc1F)c1ccc(CN2N=C(c3ccccc3)OCC2=O)cc1)C(F)(F)F (stereo not drawn) [Example 186, 1-{4-fluoro-3-[(4,4,4-trifluoro-3-methyl-2-{4-[(5-oxo-2-phenyl-5,6-dihydro-4H-1,3,4-oxadiazin-4-yl)methyl]phenyl}butanoyl)amino]benzyl}-cyclopropanecarboxylic acid]
86 nM	0.5 nM	18 nM	1 nM	O=C(Nc1cccc(CC2(C(=O)O)CC2)c1)[C@H](c1ccc(CN2N=C(c3ccccc3)OCC2=O)cc1)C1CCCC1 [Example 204, (+)-1-(3-{[(2S)-2-Cyclopentyl-2-{4-[(5-oxo-2-phenyl-5,6-dihydro-4H-1,3,4-oxadiazin-4-yl)-methyl]phenyl}acetyl]amino}benzyl)cyclopropane carboxylic acid]
11 nM	0.4 nM	19 nM	0.1 nM	O=C(Nc1cccc(CC2(C(=O)O)CC2)c1)[C@H](c1ccc(CN2Cc3c(F)cccc3C2=O)cc1)C1CCCC1 [Example 214]
490 nM	1 nM	20 nM	1 nM	O=C(O)CCc1ccc(F)c(NC(=O)[C@H](c2ccc(CN3N=C(c4ccccc4)OCC3=O)cc2)C2CCCC2)c1 [Example 224]

— US8987256B2, “Oxo-heterocyclic substituted carboxylic acid derivatives and the use thereof” (Bayer Intellectual Property GmbH, priority 2008, dated 2015)
